Laboratory results taken from ChEMBL document CHEMBL2157931, “Discovery of a novel series of inhibitors of lymphoid tyrosine phosphatase with activity in human T cells” (J Med Chem, 2011).
Active and inactive are the calls of the source. The rule behind the calls is not given here.

How the values were obtained:
[1] = target: T1, Tyrosine-protein phosphatase non-receptor type 22 (Homo sapiens, UniProt Q9Y2R2)
T1 sequence (Q9Y2R2 whole entry): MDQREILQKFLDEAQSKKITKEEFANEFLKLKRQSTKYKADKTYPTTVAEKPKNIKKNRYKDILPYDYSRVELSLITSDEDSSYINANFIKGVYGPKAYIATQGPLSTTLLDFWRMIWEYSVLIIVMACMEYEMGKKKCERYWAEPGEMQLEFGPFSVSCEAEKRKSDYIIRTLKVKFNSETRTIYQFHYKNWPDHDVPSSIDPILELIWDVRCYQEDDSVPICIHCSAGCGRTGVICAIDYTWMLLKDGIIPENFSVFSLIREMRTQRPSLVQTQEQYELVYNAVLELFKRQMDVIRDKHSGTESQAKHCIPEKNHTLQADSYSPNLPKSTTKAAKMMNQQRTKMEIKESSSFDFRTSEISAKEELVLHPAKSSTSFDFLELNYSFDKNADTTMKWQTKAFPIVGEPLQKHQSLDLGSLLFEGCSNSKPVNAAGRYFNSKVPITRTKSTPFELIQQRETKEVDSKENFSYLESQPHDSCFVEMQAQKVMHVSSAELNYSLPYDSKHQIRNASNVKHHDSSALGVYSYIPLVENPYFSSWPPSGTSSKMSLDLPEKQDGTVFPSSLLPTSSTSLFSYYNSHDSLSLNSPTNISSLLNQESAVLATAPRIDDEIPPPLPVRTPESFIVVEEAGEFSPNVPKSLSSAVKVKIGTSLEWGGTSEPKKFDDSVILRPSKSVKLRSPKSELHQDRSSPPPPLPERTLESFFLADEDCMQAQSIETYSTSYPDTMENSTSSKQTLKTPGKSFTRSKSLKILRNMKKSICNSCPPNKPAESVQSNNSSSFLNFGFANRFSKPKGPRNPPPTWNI
Description: Inhibition of LYP expressed in Escherichia coli BL21 using pNPP substrate

[2] = target: T2, Tyrosine-protein phosphatase non-receptor type 12 (Homo sapiens, UniProt Q05209)
T2 sequence (Q05209 whole entry): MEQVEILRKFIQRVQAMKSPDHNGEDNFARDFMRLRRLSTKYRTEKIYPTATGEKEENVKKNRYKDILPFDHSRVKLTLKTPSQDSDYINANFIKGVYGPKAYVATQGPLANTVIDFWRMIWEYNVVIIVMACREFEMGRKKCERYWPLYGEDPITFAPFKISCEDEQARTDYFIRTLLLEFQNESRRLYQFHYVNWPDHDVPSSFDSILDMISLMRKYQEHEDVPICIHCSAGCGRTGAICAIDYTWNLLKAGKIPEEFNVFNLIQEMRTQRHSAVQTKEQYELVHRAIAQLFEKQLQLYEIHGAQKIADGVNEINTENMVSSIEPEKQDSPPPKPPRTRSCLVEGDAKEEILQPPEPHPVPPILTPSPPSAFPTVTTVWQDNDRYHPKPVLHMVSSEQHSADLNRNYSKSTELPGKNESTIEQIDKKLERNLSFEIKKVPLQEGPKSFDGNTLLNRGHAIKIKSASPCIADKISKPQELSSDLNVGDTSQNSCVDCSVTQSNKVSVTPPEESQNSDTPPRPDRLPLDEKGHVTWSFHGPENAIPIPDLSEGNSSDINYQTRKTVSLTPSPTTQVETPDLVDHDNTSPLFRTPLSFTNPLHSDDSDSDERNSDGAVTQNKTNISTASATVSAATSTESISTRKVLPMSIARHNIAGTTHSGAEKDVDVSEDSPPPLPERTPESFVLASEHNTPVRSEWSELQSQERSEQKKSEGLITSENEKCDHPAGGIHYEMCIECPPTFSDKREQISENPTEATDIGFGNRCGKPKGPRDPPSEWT
Description: Inhibition of PTP-PEST expressed in Escherichia coli BL21 using pNPP substrate

[3] = target: T3, Low molecular weight phosphotyrosine protein phosphatase (Homo sapiens, UniProt P24666)
T3 sequence (P24666 whole entry): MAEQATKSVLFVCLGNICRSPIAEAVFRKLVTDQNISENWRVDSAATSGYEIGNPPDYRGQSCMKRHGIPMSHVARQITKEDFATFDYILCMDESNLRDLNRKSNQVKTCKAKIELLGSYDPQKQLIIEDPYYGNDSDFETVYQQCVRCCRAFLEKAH
Description: Inhibition of LMPTP-A expressed in Escherichia coli BL21 using pNPP substrate

[4] = target: T4, Tyrosine-protein phosphatase non-receptor type 7 (Homo sapiens, UniProt P35236)
T4 sequence (P35236 whole entry): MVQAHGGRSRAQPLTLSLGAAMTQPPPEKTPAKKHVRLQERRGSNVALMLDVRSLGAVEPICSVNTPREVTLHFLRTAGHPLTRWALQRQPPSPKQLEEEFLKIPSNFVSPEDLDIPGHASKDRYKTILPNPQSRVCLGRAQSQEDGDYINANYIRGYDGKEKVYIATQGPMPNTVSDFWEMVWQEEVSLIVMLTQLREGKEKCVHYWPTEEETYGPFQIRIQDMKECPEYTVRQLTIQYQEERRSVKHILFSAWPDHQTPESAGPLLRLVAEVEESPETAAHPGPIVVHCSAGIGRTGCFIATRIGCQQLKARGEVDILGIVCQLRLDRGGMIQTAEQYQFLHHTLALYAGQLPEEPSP
Description: Inhibition of HePTP expressed in Escherichia coli BL21 using pNPP substrate

[5] = target: T1, Tyrosine-protein phosphatase non-receptor type 22; remark: listed apart in the source
[6] = target: T1, Tyrosine-protein phosphatase non-receptor type 22; remark: listed apart in the source
Description: Inhibition of LYP expressed in Escherichia coli BL21 using increasing levels of ARLIED-NEpYTAREG substrate

[7] = target: T5, Tyrosine-protein phosphatase non-receptor type 22 (Mus musculus) (UniProt P29352); test: Inhibition of LYP in anti-CD3 and antiCD28 antibody-stimulated C57BL/6 mouse CD8+ splenocytes assessed as increase in TCR signaling-stimulated CD69 expression at 50 uM incubated for 24 hrs (reference value: 5.3%); parameters: scale not given: the % may be the effect or the level left
T5 sequence (whole entry): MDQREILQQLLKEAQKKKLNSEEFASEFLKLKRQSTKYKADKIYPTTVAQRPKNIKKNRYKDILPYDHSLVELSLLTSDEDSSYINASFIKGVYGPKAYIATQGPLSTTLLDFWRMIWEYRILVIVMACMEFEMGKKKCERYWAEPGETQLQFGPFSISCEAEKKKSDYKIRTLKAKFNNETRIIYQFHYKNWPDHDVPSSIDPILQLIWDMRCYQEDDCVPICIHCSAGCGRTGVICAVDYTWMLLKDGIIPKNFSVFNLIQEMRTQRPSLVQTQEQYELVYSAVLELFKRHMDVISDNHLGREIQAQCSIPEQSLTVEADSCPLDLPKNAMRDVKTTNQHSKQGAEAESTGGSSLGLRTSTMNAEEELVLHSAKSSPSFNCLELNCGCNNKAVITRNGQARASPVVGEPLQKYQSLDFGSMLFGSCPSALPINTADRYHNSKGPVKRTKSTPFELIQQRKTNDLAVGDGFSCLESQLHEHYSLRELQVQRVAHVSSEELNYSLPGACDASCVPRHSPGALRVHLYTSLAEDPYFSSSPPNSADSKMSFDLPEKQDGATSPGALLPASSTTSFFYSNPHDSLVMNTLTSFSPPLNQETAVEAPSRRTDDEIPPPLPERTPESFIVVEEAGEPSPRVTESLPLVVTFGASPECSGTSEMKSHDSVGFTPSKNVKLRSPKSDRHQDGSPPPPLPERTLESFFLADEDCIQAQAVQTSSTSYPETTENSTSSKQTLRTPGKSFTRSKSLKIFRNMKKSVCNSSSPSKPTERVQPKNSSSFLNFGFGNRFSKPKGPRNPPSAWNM

[8] = target: T5, Tyrosine-protein phosphatase non-receptor type 22 (Mus musculus); test: Inhibition of LYP in anti-CD3 and antiCD28 antibody-stimulated C57BL/6 mouse CD4+ splenocytes assessed as increase in TCR signaling-stimulated CD69 expression at 100 uM incubated for 24 hrs (reference value: 29.2%); parameters: scale not given: the % may be the effect or the level left
[9] = target: T5, Tyrosine-protein phosphatase non-receptor type 22 (Mus musculus); test: Inhibition of LYP-mediated TCR signaling in anti-CD3 and anti-CD4 antibody stimulated mouse Ptpn22+/+ T cells assessed as increase in Lck Y394 phosphorylation at 50 uM by Western blotting; details: T-cell
[10] = target: T5, Tyrosine-protein phosphatase non-receptor type 22 (Mus musculus); test: Inhibition of LYP in anti-CD3 and antiCD28 antibody-stimulated C57BL/6 mouse CD8+ splenocytes assessed as increase in TCR signaling-stimulated CD69 expression at 100 uM incubated for 24 hrs (reference value: 5.3%); parameters: scale not given: the % may be the effect or the level left
[11] = target: T5, Tyrosine-protein phosphatase non-receptor type 22 (Mus musculus); test: Inhibition of LYP in anti-CD3 and antiCD28 antibody-stimulated C57BL/6 mouse CD4+ splenocytes assessed as increase in TCR signaling-stimulated CD69 expression at 50 uM incubated for 24 hrs (reference value: 29.2%); parameters: scale not given: the % may be the effect or the level left
[12] = Inhibition of TCR signaling in anti-CD3 and anti-CD4 antibody stimulated mouse Ptpn22-/- T cells assessed as increase in Lck Y394 phosphorylation at 50 uM by Western blotting; details: T-cell

| SMILES | IC50 [1] [µM] | IC50 [2] [µM] | IC50 [3] [µM] | IC50 [4] [µM] | other results |
| --- | --- | --- | --- | --- | --- |
| Cc1ccc2cc(C#N)c(SCC(=O)NC3CCCCC3)nc2c1C | 19.8 | 21 | 45.3 | 8 | – |
| Cc1ccc2[nH]c(=O)c(C(c3nnnn3C3CCCC3)N3CCC(C)CC3)cc2c1 (centres undefined) | 20.6 | – | – | – | – |
| Cc1cccc2cc(C#N)c(SCC(=O)Nc3cccc(Cl)c3)nc12 | 27.2 | 28 | > 90 | 22 | – |
| Cc1ccc2[nH]c(=O)c(C(c3nnnn3C3CCCC3)N3CCN(c4ccc(O)cc4)CC3)cc2c1 (centres undefined) | > 40 | – | – | – | – |
| Cc1ccc(NC(=O)CSc2nc3c(C)c(C)ccc3cc2C#N)cc1C | 26.6 | 27.5 | 53.3 | 20 | – |
| Cc1ccc2[nH]c(=O)c(C(c3nnnn3C3CCCC3)N3CCN(Cc4ccccc4)CC3)cc2c1 (centres undefined) | > 40 | – | – | – | – |
| Cc1ccc2[nH]c(=O)c(C(c3nnnn3C3CCCC3)N3CCN(c4nc5ccccc5s4)CC3)cc2c1 (centres undefined) | 30 | – | – | – | – |
| Cc1ccc2[nH]c(=O)c(C(c3nnnn3C3CCCC3)N3CCN(C(c4ccccc4)c4ccccc4)CC3)cc2c1 (centres undefined) | – | – | – | – | Ki [5]: 21.3 µM; Ki [6]: 11 µM |
| Cc1ccc2[nH]c(=O)c(C(c3nnnn3C3CCCC3)N3CCN(c4ccc(F)cc4)CC3)cc2c1 (centres undefined) | 30.5 | – | – | – | – |
| Cc1ccc2[nH]c(=O)c(C(c3nnnn3-c3ccccc3)N3CCCC4(CCCCC4)C3)cc2c1 (centres undefined) | 11.2 | – | – | – | – |
| Cc1ccc2[nH]c(=O)c(C(c3nnnn3C3CCCC3)N3CCCCC3)cc2c1 (centres undefined) | 30.9 | – | – | > 75 | – |
| Cc1ccc2cc(C#N)c(SCC(=O)Nc3ccc4c(c3)OCO4)nc2c1 | 23.3 | 36 | > 90 | 12 | – |
| CCOc1ccc(NC(=O)CSc2nc3c(C)cc(C)cc3cc2C#N)cc1 | 28.1 | 16 | > 90 | 16 | – |
| Cc1ccc2[nH]c(=O)c(C(c3nnnn3C3CCCC3)N(Cc3ccccc3)Cc3ccccc3)cc2c1 (centres undefined) | 13.3 | – | – | – | – |
| COc1ccc2cc(C#N)c(SCC(=O)Nc3cccc(C)c3C)nc2c1 | 30.5 | 18 | 60.9 | 15 | – |
| COc1ccc(-n2ncc3c(SCC(=O)N4c5ccccc5CC4C)ncnc32)cc1 (centres undefined) | – | > 40 | > 90 | – | – |
| COc1ccc(N2CCN(C(c3cc4cc(C)ccc4[nH]c3=O)c3nnnn3C3CCCC3)CC2)cc1 (centres undefined) | 31.5 | – | – | – | – |
| Cc1ccc2[nH]c(=O)c(C(c3nnnn3C(C)C)N3CCCC4(CCCCC4)C3)cc2c1 (centres undefined) | 21.2 | – | – | – | – |
| Cc1ccc2[nH]c(=O)c(C(c3nnnn3C3CCCC3)N3CCN(c4ccccc4)CC3)cc2c1 (centres undefined) | 30.7 | – | – | – | – |
| Cc1ccc2[nH]c(=O)c(C(c3nnnn3C3CCCC3)N3CCCC4(CCCCC4)C3)cc2c1 (centres undefined) | – | – | – | – | Activity [7]: 12.1%; Activity [8]: 38.9%; inhibition [9]: Active; Activity [10]: 13.7%; Activity [11]: 36.8%; inhibition [12]: inactive |
| COc1ccccc1N1CCN(C(c2cc3cc(C)ccc3nc2O)c2nnnn2C2CCCC2)CC1 (centres undefined) | > 40 | – | – | – | – |
| Cc1ccc2[nH]c(=O)c(C(c3nnnn3C3CCCC3)N3CCN(C4CCCCC4)CC3)cc2c1 (centres undefined) | > 40 | – | – | – | – |
| Cc1ccc2[nH]c(=O)c(C(c3nnnn3C3CCCC3)N3CCN(C)CC3)cc2c1 (centres undefined) | > 40 | – | – | – | – |
| Cc1ccc2sc(NC(=O)c3sc4ccccc4c3Cl)nc2c1 | 29.5 | 14 | > 90 | 8 | – |
| CCN1CCN(C(c2cc3cc(C)ccc3[nH]c2=O)c2nnnn2C2CCCC2)CC1 (centres undefined) | > 40 | – | – | – | – |
